Results: ChEMBL document CHEMBL1201862, “PubChem BioAssay data set” (2004)
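Compound exposure: 48 hours, 5 concentrations, 96-well plates. GI50 is the concentration that inhibits growth by half.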 Calls of active or inactive are those of the source. No stated cut-off is given here; in the data, active = GI50 up to about 1.1 µM and inactive = higher.

Columns and labels:
Assay in all cases: NCI-60 cell line screen, 48 h
[1] = system: ACHN
[2] = system: HCC 2998
[3] = system: HL-60
[4] = system: HOP-62
[5] = system: HT-29
[6] = system: LOX IMVI
[7] = system: Malme-3M
[8] = system: NCI-H23
[9] = system: NCI-H460
[10] = system: OVCAR-3
[11] = system: SF-295
[12] = system: SK-MEL-28
[13] = system: SK-MEL-2
[14] = system: SNB-75
[15] = system: SW-620
[16] = system: UO-31
[17] = system: SF-539

Measured: GI50

CCOC(=O)C1C(c2ccc(Br)cc2)N(Cc2ccccc2)C(c2ccc(Br)cc2)C(C(=O)OC)S1(=O)=O (configuration not stated)
inactive: [1] 93.5 µM | [2] > 100 µM | [3] > 100 µM | [4] > 100 µM | [5] 66.8 µM | [6] > 100 µM | [7] > 100 µM | [8] > 100 µM | [9] > 100 µM | [10] > 100 µM | [11] 35.4 µM | [12] 53.3 µM | [13] > 100 µM | [14] 21.3 µM | [15] > 100 µM | [16] 49.7 µM

O=C(N/C(=C\c1ccc2c(c1)OCO2)c1nc2ccccc2[nH]1)c1ccccc1
inactive: [1] 33.3 µM | [2] 27.7 µM | [3] 14.8 µM | [4] 24.5 µM | [5] 4.98 µM | [6] 38.5 µM | [7] 34.2 µM | [8] 18.6 µM | [9] 34.8 µM | [10] 24.7 µM | [11] 43.7 µM | [17] 24.9 µM | [12] 17.6 µM | [13] 26.4 µM | [14] 20.9 µM | [15] 33.6 µM | [16] 24.6 µM

CCOC(=O)c1s/c(=N\Nc2nc3ccccc3cc2C2OCCO2)n(Cc2ccccc2)c1C
inactive: [1] > 100 µM | [3] > 100 µM | [4] > 100 µM | [5] > 100 µM | [6] > 100 µM | [7] > 100 µM | [8] > 100 µM | [9] > 100 µM | [10] > 100 µM | [11] > 100 µM | [17] > 100 µM | [12] > 100 µM | [13] > 100 µM | [14] > 100 µM | [15] > 100 µM | [16] > 100 µM

CCCNC(=O)C(C)(Cl)C(=O)c1ccccc1O (configuration not stated)
inactive: [1] > 100 µM | [2] > 100 µM | [3] > 100 µM | [4] > 100 µM | [7] > 100 µM | [9] > 100 µM | [10] > 100 µM | [17] > 100 µM | [12] > 100 µM | [13] > 100 µM | [14] > 100 µM | [15] > 100 µM | [16] > 100 µM

O=C1CC2CCN(C(=O)c3ccccc3)CC2CCN1.O=C1CCC2CC(C(=O)c3ccccc3)CCC2CN1 (configuration not stated)
inactive: [1] > 100 µM | [2] > 100 µM | [3] > 100 µM | [4] > 100 µM | [5] > 100 µM | [7] > 100 µM | [8] > 100 µM | [9] > 100 µM | [10] > 100 µM | [11] > 100 µM | [17] > 100 µM | [12] > 100 µM | [13] > 100 µM | [14] > 100 µM | [15] > 100 µM | [16] > 100 µM

CC(=O)OCC(OC(C)=O)C(OC(C)=O)C(OC(C)=O)C(=O)CNn1c(-c2ccc(C)cc2)nc2ccccc2c1=O (configuration not stated)
inactive: [1] > 100 µM | [3] 50 µM | [4] > 100 µM | [5] > 100 µM | [6] > 100 µM | [7] > 100 µM | [8] > 100 µM | [9] > 100 µM | [10] > 100 µM | [11] > 100 µM | [17] > 100 µM | [12] > 100 µM | [13] > 100 µM | [14] 53.1 µM | [15] > 100 µM | [16] > 100 µM

CCCCCNC(=O)C1C(=O)N(CCCCC)C(=O)/C1=N\N (configuration not stated)
inactive: [1] 59.8 µM | [2] 35.3 µM | [3] > 100 µM | [4] 35.5 µM | [5] 83.8 µM | [7] > 100 µM | [8] 47.5 µM | [9] 78.5 µM | [10] 46.8 µM | [11] 30.5 µM | [17] 59.4 µM | [12] 62.8 µM | [13] 35.2 µM | [15] 79.3 µM | [16] 26.8 µM

CCOC(=O)/C=C(/CN1C(=O)c2ccccc2C1=O)c1ccccc1
inactive: [1] > 100 µM | [2] > 100 µM | [4] > 100 µM | [5] > 100 µM | [6] > 100 µM | [7] > 100 µM | [8] > 100 µM | [9] > 100 µM | [10] > 100 µM | [11] > 100 µM | [17] > 100 µM | [12] > 100 µM | [13] > 100 µM | [14] > 100 µM | [15] > 100 µM | [16] > 100 µM

O=c1[nH]cc(COCC(O)CO)c(=O)[nH]1 (configuration not stated)
inactive: [1] > 100 µM | [3] > 100 µM | [4] > 100 µM | [5] > 100 µM | [6] > 100 µM | [7] > 100 µM | [8] > 100 µM | [9] > 100 µM | [10] > 100 µM | [11] > 100 µM | [17] > 100 µM | [12] > 100 µM | [13] > 100 µM | [14] > 100 µM | [15] > 100 µM | [16] > 100 µM

C/C(=N\NS(=O)(=O)c1ccccc1)c1ccc[n+]([O-])n1
inactive: [1] > 100 µM | [2] > 100 µM | [3] 21.8 µM | [4] > 100 µM | [5] > 100 µM | [8] > 100 µM | [9] > 100 µM | [10] 42.5 µM | [11] > 100 µM | [17] > 100 µM | [12] 62.5 µM | [14] 47.6 µM | [15] 34.8 µM | [16] > 100 µM

O=C1NC(=O)C(=Cc2c3ccccc3cc3ccccc23)C(=O)N1
inactive: [1] > 100 µM | [3] 44.7 µM | [4] > 100 µM | [5] 55.1 µM | [6] > 100 µM | [8] > 100 µM | [9] > 100 µM | [17] > 100 µM | [12] > 100 µM | [15] > 100 µM | [16] > 100 µM

COc1ccccc1NC(=O)C1=C(C)NC(C)=C(C(=O)Nc2ccccc2OC)C1c1ccc([N+](=O)[O-])cc1
inactive: [1] 52.8 µM | [3] 39.2 µM | [4] > 100 µM | [5] 80.5 µM | [6] 48.9 µM | [7] > 100 µM | [8] 58.6 µM | [9] 28.8 µM | [10] > 100 µM | [11] 13.4 µM | [17] > 100 µM | [12] 27 µM | [13] 74.5 µM | [14] > 100 µM | [15] 93.1 µM

Cc1nn(-c2ccccc2)c2nc(N3CCOCC3)nnc12
inactive: [1] 71.9 µM | [2] > 100 µM | [4] > 100 µM | [5] > 100 µM | [6] > 100 µM | [7] 64 µM | [8] 79.6 µM | [9] > 100 µM | [10] 88.7 µM | [11] > 100 µM | [17] 24.4 µM | [12] > 100 µM | [13] 51.3 µM | [14] 40.3 µM | [15] > 100 µM | [16] 28.6 µM
